Usually Ki stands for the equilibrium dissociation constant of an inhibitor or competing ligand from its target. What is called IC50 is the midpoint of a concentration-inhibition curve.

In assay [1] the target is recombinant RORγ Ligand Binding Domain (LBD) (Homo sapiens (Human), UniProt P51449). Nature of the assay: Radio-Ligand RORγ Binding Assay (Assay 1). Conditions: cell-free competition with 25-hydroxy [26,27-3H]-cholesterol, SPA; read-out: RORγ Binding Ki Range*. How it is done: Radio-Ligand ROR ? Binding Assay (Assay 1)
Sequence of recombinant RORγ Ligand Binding Domain (LBD) (P51449 269-508): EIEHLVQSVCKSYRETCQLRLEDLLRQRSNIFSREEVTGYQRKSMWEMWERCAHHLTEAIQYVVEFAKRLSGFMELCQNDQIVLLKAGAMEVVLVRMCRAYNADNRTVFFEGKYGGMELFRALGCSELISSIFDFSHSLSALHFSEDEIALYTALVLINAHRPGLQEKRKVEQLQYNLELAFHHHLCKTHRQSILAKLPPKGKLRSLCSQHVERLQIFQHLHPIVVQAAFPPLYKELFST
Compounds of the present invention were tested for ability to bind to ROR ? in a cell-free competition assay with commercially available radio-ligand (RL), 25-hydroxy [26,27-^3H]-cholesterol (PerkinElmer, Cat. # NET674250UC), for a ligand binding site on a recombinant ROR ? Ligand Binding Domain (LBD) protein expressed as a 6×His-Glutathione-S-Transferase (GST) fusion. […] The plate was shaken at 700 rpm for 20 min and incubated for 10 min at rt, after which 40 μL of poly-Lys YSi SPA beads (PerkinElmer, Cat. # RPNQ0010) were added to achieve 50 μg of the beads per well. The plate was incubated on an orbital shaker for 20 min and then for 10 min without agitation at rt. SPA signal for tritium beta radiation was registered on PerkinElmer Microbeta plate reader. […] The percent inhibition vs. concentration data were fit into a four-parameter model, and IC50 values were calculated from the fit as the concentrations corresponding to the inflection points on the dose-response curves.

Assay [2] deals with full-length RORγt in Jurkat cells (Homo sapiens (Human), UniProt P51449). The assay can be described thus: RORγt 5×RORE Assay in Jurkat Cells (Assay 2). The assay is classed as cell-based. Conditions: Nanoluc luciferase reporter, 16-18 hrs, read-out: RORγt5X IC50 Range*. How it is done:
[formula] ROR ? t 5×RORE Assay in Jurkat Cells (Assay 2)
Compounds of the present invention were tested for ROR ? inverse agonist activity in a cell-based, transcriptional activity assay. […] (Promega, Cat. # N1021) using KpnI and HindIII restriction sites. […] Luciferase activity in the conditioned supernatants was determined with NanoGlo® assay reagents (Promega, Cat.# N1130).

Sequence of full-length RORγt in Jurkat cells (P51449 other isoform, or with tags, fused parts or gaps): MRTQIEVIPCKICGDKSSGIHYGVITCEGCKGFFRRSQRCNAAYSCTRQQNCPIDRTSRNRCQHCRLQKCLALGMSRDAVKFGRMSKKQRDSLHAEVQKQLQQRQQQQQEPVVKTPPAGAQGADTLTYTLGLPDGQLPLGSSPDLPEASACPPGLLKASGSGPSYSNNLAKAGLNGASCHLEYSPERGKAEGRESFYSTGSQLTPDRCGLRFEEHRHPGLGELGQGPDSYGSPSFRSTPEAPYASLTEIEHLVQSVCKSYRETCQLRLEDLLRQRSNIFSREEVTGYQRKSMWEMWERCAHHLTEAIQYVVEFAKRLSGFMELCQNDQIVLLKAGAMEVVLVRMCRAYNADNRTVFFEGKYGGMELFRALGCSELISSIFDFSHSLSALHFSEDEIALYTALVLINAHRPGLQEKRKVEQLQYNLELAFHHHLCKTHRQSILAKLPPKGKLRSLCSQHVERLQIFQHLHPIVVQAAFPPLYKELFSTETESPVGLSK

For `CC(C)[C@H]1c2ncc(C(=O)NCc3ccnn3C)cc2CN1Cc1ccc(C(F)(F)F)cc1` [Compound 73], the inhibitory constant (Ki) in assay [1] was greater than 1000 nM.
On to `CC(C)[C@H]1c2ncc(C(=O)NCc3cnn(C)c3)cc2CN1Cc1ccc(C(F)(F)F)cc1` [Compound 76], for which the inhibitory constant (Ki) in assay [1] lay within 100 to 1000 nM.
For `CCS(=O)(=O)n1cc(CNC(=O)c2cnc3c(c2)CN(Cc2ccc(C(F)(F)F)cc2)[C@H]3C(C)C)cn1` [Compound 133], the Ki in assay [1] was less than 100 nM. The IC50 in assay [2] is 100 to 1000 nM.

The record behind these values is patent US10399976B2, “Dihydropyrrolopyridine inhibitors of ROR-gamma” (Vitae Pharmaceuticals, LLC, priority 2014, dated 2019).
